Experimental data taken from patent US5773646A, “Meta-substituted phenylene derivatives” (G. D. Searle & Co., priority 1997, dated 1998).
Counter-ions that a name gives are not always drawn. Like-named read-outs stand apart in the source and are kept apart here.

Assays:
[1] = target: T1, Human vitronectin receptor (αv β3) (Homo sapiens, UniProt P05106+P06756); assay: Vitronectin adhesion assay (solid phase receptor assay, biotinylated vitronectin competition); format: binding
T1 construct: Human vitronectin receptor(αv β3) was purified from human placenta; from tissue; host or cells: human placenta
Method: VITRONECTIN ADHESION ASSAY Human vitronectin receptor(αv β3) was purified from human placenta as previously described [Pytela et al., Methods in Enzymology, 144:475-489 (1987)). Human vitronectin was purified from fresh frozen plasma as previously described [Yatohgo et al., Cell Structure and Function, 13:281-292 (1988)]. Biotinylated human vitronectin was prepared by coupling NHS-biotin from Pierce Chemical Company (Rockford, Ill.) to purified vitronectin as previously described [Charo et al., J. Biol. Chem., 266(3):1415-1421 (1991)]. Assay buffer, OPD substrate tablets, and RIA grade BSA were obtained from Sigma (St. Louis, Mo.). Anti-biotin antibody was obtained from Calbiochem (La Jolla, Calif.). Linbro microtiter plates were obtained from Flow Labs (McLean, Va.). ADP reagent was obtained from Sigma (St. Louis, Mo.). Solid Phase Receptor Assays This assay was essentially the same as previously reported [Niiya et al., Blood, 70:475-483 (1987)]. The purified human vitronectin receptor (αv β3) was diluted from stock solutions to 1.0 μg/mL in Tris-buffered saline containing 1.0 mM Ca^++, Mg^++, and Mn^++, pH 7.4 (TBS^+++). The diluted receptor was immediately transferred to Linbro microtiter plates at 100 μL/well (100 ng receptor/well). The plates were sealed and incubated overnight at 4° C. to allow the receptor to bind to the wells. All remaining steps were at room temperature. The assay plates were emptied and 200 μL of 1% RIA grade BSA in TBS^+++ (TBS^+++ /BSA) were added to block exposed plastic surfaces. Following a 2 hour incubation, the assay plates were washed with TBS^+++ using a 96 well plate washer. Logarithmic serial dilution of the test compound and controls were made starting at a stock concentration of 2 mM and using 2 nM biotinylated vitronectin in TBS^+++ /BSA as the diluent. This premixing of labeled ligand with test (or control) ligand, and subsequent transfer of 50 μL aliquots to the assay plate was carried out with a CETUS Propette robot; the final concentration of the labeled ligand was 1 nM and the highest concentration of test compound was 1.0×10^-4 M. The competition occurred for two hours after which all wells were washed with a plate washer as before. Affinity purified horseradish peroxidase labeled goat antibiotin antibody was diluted 1:3000 in TBS^+++ /BSA and 125 μL were added to each well. After 30 minutes, the plates were washed and incubated with OPD/H2 O2 substrate in 100 mM/L Citrate buffer, pH 5.0. The plate was read with a microtiter plate reader at a wavelength of 450 nm and when the maximum-binding control wells reached an absorbance of about 1.0, the final A450 were recorded for analysis. The data were analyzed using a macro written for use with the EXCEL™ spreadsheet program. The mean, standard deviation, and %CV were determined for duplicate concentrations. The mean A450 values were normalized to the mean of four maximum-binding controls (no competitor added)(B-MAX). The normalized values were subjected to a four parameter curve fit algorithm [Rodbard et al., Int.

[2] = target: T2, Human fibrinogen receptor (αIIb β3) (Homo sapiens, UniProt P05106+P08514); assay: Purified IIb/IIIa receptor assay (solid phase receptor assay, biotinylated vitronectin competition); settings: inhibition of 50% of the maximum binding of biotinylated vitronectin; 1 nM labeled ligand, 2 hours, room temperature, highest concentration of test compound 1.0×10^-4 M
T2 construct: Human fibrinogen receptor (αIIb β3) was purified from outdated platelets; from tissue; host or cells: outdated human platelets
Text: PURIFIED IIb/IIIa RECEPTOR ASSAY Human fibrinogen receptor (αIIb β3) was purified from outdated platelets. (Pytela, R., Pierschbacher, […]., Suzuki, S., and […] acid adhesion receptors", Methods in Enzymology 144(1987):475-489.) Human vitronectin was purified from fresh frozen plasma as described in Yatohgo, T., Izumi, M., Kashiwagi, H., and Hayashi, M., "Novel purification of vitronectin from human plasma by heparin affinity chromatography," Cell Structure and Function 13(1988):281-292. Biotinylated human vitronectin was prepared by coupling NHS-biotin from Pierce Chemical Company (Rockford, Ill.) to purified vitronectin as previously described. (Charo, […]., Phillips, D. R., Hsu, M. A., Scarborough, R. M., "Inhibition of fibrinogen binding to GP IIb/IIIa by a GP IIIa peptide", J. Biol. Chem. 266(3)(1991):1415-1421.) Assay buffer, OPD substrate tablets, and RIA grade BSA were obtained from Sigma (St. Louis, Mo.). Anti-biotin antibody was obtained from Calbiochem (La Jolla, Calif.). Linbro microtiter plates were obtained from Flow Labs (McLean, Va.). ADP reagent was obtained from Sigma (St. Louis, Mo.). Solid Phase Receptor Assays This assay is essentially the same reported in […]., Bader, R., Byers-Ward, […]., Plow, E. F. and Ruggeri, Z. M., "Increased surface expression of the membrane glycoprotein IIb/IIIa complex induced by platelet activation: Relationships to the binding of fibrinogen and platelet aggregation", Blood 70(1987):475-483. The purified human fibrinogen receptor (αIIb β3) was diluted from stock solutions to 1.0 μg/mL in Tris-buffered saline containing 1.0 mM Ca^++, Mg^++, and Mn^++, pH 7.4 (TBS^+++). The diluted receptor was immediately transferred to Linbro microtiter plates at 100 μL/well (100 ng receptor/well). The plates were sealed and incubated overnight at 4° C. to allow the receptor to bind to the wells. All remaining steps were at room temperature. The assay plates were emptied and 200 μL of 1% RIA grade BSA in TBS^+++ (TBS^+++ /BSA) were added to block exposed plastic surfaces. Following a 2 hour incubation, the assay plates were washed with TBS^+++ using a 96 well plate washer. Logarithmic serial dilution of the test compound and controls were made starting at a stock concentration of 2 mM and using 2 nM biotinylated vitronectin in TBS^+++ /BSA as the diluent. This premixing of labeled ligand with test (or control) ligand, and subsequent transfer of 50 μL aliquots to the assay plate was carried out with a CETUS Propette robot; the final concentration of the labeled ligand was 1 nM and the highest concentration of test compound was 1.0×10^-4 M. The competition occurred for two hours after which all wells were washed with a plate washer as before. Affinity purified horseradish peroxidase labeled goat antibiotin antibody was diluted 1:3000 in TBS^+++ /BSA and 125 μL were added to each well. After 30 minutes, the plates were washed and incubated with […]/H2 O2 substrate in 100 mM/L citrate buffer, pH 5.0. The plate was read with a microtiter plate reader at a wavelength of 450 nm and when the maximum-binding control wells reached an absorbance of about 1.0, the final A450 were recorded for analysis. The data were analyzed using a macro written for use with the EXCELTM spreadsheet program. The mean, standard deviation, and %CV were determined for duplicate concentrations. The mean A450 values were normalized to the mean of four maximum-binding controls (no competitor added)(B-MAX). The normalized values were subjected to a four parameter curve fit algorithm, [Robard et al., Int.

[3] = inhibition of 50% of the maximum binding of biotinylated vitronectin, 1 nM labeled ligand, 2 hours, room temperature, highest concentration of test compound 1.0×10^-4 M, read-out: AvB3 IC50

IC50 [1, 3] [µM]	IC50 [2] [µM]	IC50 ([1]; positive control included on each plate, range given in text, read-out: αv β3 antagonist IC50 (positive control)) [µM]	Compound
7.46	26.9		3-[[[[3-[(aminothioxomethyl)amino]phenyl]carbonyl]amino]methyl]benzenepropanoic acid [Example 25]
0.0116	5.18		CCC(CC(=O)O)c1cccc(CNC(=O)c2ccc(Cl)c(NC(=N)N)c2)c1 (racemic) [Example 58, (±) 3-[[[[3-[(aminoiminomethyl)amino]-4-chlorophenyl]carbonyl]amino]methyl]-β-ethylbenzenepropanoic acid, trifluoroacetate salt]
0.00388	3.13		CCC(CC(=O)O)c1cccc(CNC(=O)c2cc(NC(=N)N)cc(C(F)(F)F)c2)c1 (racemic) [Example 59, (±) 3-[[[[3-[(aminoiminomethyl)amino]-5(trifluoromethyl)phenyl]carbonyl]amino]methyl]-β-ethylbenzenepropanoic acid, trifluoroacetate salt]
0.00458	0.286		N=C(N)Nc1cccc(C(=O)NCc2cccc(C(CC(=O)O)c3cc(F)cc(F)c3)c2)c1 (racemic) [Example 60, (±) β-[3-[[[[3-[(aminoiminomethyl)amino]phenyl]carbonyl]amino]methyl]phenyl]-3,5-difluorobenzenepropanoic acid, trifluoroacetate salt]
0.00133	0.712		N=C(N)Nc1cc(C(=O)NCc2cccc(C(CC(=O)O)c3cc(F)cc(F)c3)c2)cc(C(F)(F)F)c1 (racemic) [Example 61, (±) β-[3-[[[[3-[(aminoiminomethyl)amino]-5-(trifluoromethyl)phenyl]carbonyl]amino]methyl]phenyl]-3,5-difluorobenzenepropanoic acid, trifluoroacetate salt hydrate]
0.00087	1.9		O=C(O)CC(c1cc(F)cc(F)c1)c1cccc(CNC(=O)c2cccc(NC3=NCCCN3)c2)c1 (racemic) [Example 62, (±) 3,5-difluoro-β-[3-[[[[3-[(1,4,5,6-tetrahydropyrimidin-2-yl)amino]phenyl]carbonyl]amino]methyl]phenyl]benzenepropanoic acid, trifluoroacetate salt monohydrate]
0.0235	0.454		COc1ccccc1C(CC(=O)O)c1cccc(CNC(=O)c2cccc(NC(=N)N)c2)c1 (racemic) [Example 63, (±) -[3-[[[[3-[(aminoiminomethyl)amino]phenyl]carbonyl]amino]methyl]phenyl]-2-methoxybenzene propanoic acid, trifluoroacetate salt hydrate]
0.199	26.4		CC(CC(=O)O)c1cccc(CNC(=O)c2cccc(NC(N)=NC#N)c2)c1 (racemic) [Example 64, (±) 3[[[[3-[[amino(cyanoimino)methyl]amino]phenyl]carbonyl]amino]methyl]-β-methylbenzenepropanoic acid]
0.023	4.01		CC(CC(=O)O)c1cccc(CNC(=O)c2cccc(NC(N)=NC(N)=O)c2)c1 (racemic) [Example 65, (±) 3[[[[3-[[amino[(aminocarbonyl)imino]methyl]amino]phenyl]carbonyl]amino]methyl]-β-methylbenzenepropanoic acid, trifluoroacetate salt]
0.122	12.9		CC(CC(=O)O)c1cccc(CNC(=O)c2cccc(NC3=NC(=O)CN3)c2)c1 (racemic) [Example 67, (±) 3-[[[[3-[(4,5-dihydro-4-oxo-1H-imidazol-2-yl)amino]phenyl]carbonyl]amino]methyl]-β-methylbenzenepropanoic acid]
0.425	10.1		CC(CC(=O)O)c1cccc(CNC(=O)c2cccc(Nc3nc4ccccc4[nH]3)c2)c1 (racemic) [Example 69, (±) 3-[[[[3-[(1H-benzimidazol-2-yl)amino]phenyl]carbonyl]amino]methyl]-β-methyl benzenepropanoic acid]
1.71	7.66		COc1ccc2[nH]c(Nc3cccc(C(=O)NCc4cccc(C(C)CC(=O)O)c4)c3)nc2c1 (racemic) [Example 70, (±) 3-[[[[3-[(5-methoxy-1H-benzimidazol-2-yl)amino]phenyl]carbonyl]amino]methyl]-β-methyl benzenepropanoic acid, trifluoroacetate salt]
0.0167	0.625		N=C(N)Nc1cccc(S(=O)(=O)Nc2cccc(C(CC(=O)O)c3ccccc3)c2)c1 (stereo not drawn) [Example 1, 3-[[[3-[(aminoiminomethyl)amino]phenyl]sulfonyl]amino]-β-phenylbenzenepropanoic acid, trifluoroacetate salt]
0.499	3.76		N=C(N)Nc1cccc(C(=O)Nc2cccc(C(CC(=O)O)c3ccccc3)c2)c1 (stereo not drawn) [Example 2, 3-[[[3-[(aminoiminomethyl)amino]phenyl]carbonyl]amino]-β-phenylbenzenepropanoic acid, trifluoroacetate salt]
		0.003 to 0.01	N=C(N)NCCCCC(=O)NCC(=O)NC(CC(=O)O)c1cccnc1 (stereo not drawn) [β-[[2-[[5-[(aminoiminomethyl)amino]-1-oxopentyl]amino]-1-oxoethyl]amino]-3-pyridinepropanoic acid]
